Experimental data as given in publication PMC5433425 (PeerJ, 2017).
Where “and” joins values, the source holds several entries; their conditions need not be identical. Identical values can stand only once. Like-named read-outs stand apart in the source and are kept apart here. Peptide text beside a SMILES is read from it. * marks the point of attachment. βNA = c1ccc2cc(N*)ccc2c1

Experiments:
E. coli AG100 = assay: Membrane permeability assay (Live/Dead BacLight)
E. coli AG100tet = assay: EtBr efflux by real-time fluorometry; conditions: 80 µM
Procedure: Control tubes with only cells and cells with and without 0.4% glucose were included. The fluorescence was measured in a Rotor-Gene 3000 and the data was acquired every 30 s for 30 min at 37 °C. The efflux activity was quantified by comparing the fluorescence data obtained under conditions that promote efflux (presence of glucose and absence of efflux inhibitor) with the data from the control in which the bacteria are under conditions of no efflux (presence of an inhibitor and no energy source).

[1] = system: E. coli AG100tet (AcrAB overexpressing); assay: MIC, broth microdilution; type: cell-based, Escherichia coli; conditions: Escherichia coli
E. coli AG100A = assay: microbe, parasite or virus in culture; type: cell-based, Escherichia coli; conditions: for MIC: Escherichia coli, AG100A
[2] = 80 uM, raw well reading, listed as PAN

NC(N)=NCCC[C@H](NC(=O)[C@@H](N)Cc1ccccc1)C(=O)Nc1ccc2ccccc2c1 [PAβN] (H-Phe-Arg-βNA)
BacLight Live/Dead fluorescence 485/20,528/20 (E. coli AG100; [2]): 168 and 192
BacLight Live/Dead fluorescence 485/20,590/35 (E. coli AG100; [2]): 43 and 57
membrane permeability increase / membrane permeation (E. coli AG100; AG100, 80 µM): 14%
Fluorescence raw data, Channel Cycling A.530/585hp (E. coli AG100tet; cycle 1, + glucose): 2.731
Fluorescence raw data, Channel Cycling A.530/585hp (E. coli AG100tet; cycle 1, without glucose): 3.207
Fluorescence raw data, Channel Cycling A.530/585hp (E. coli AG100tet; cycle 2, + glucose): 2.53
Fluorescence raw data, Channel Cycling A.530/585hp (E. coli AG100tet; cycle 2, without glucose): 3.035
Fluorescence raw data, Channel Cycling A.530/585hp (E. coli AG100tet; cycle 3, + glucose): 2.342
Fluorescence raw data, Channel Cycling A.530/585hp (E. coli AG100tet; cycle 3, without glucose): 2.872
Fluorescence raw data, Channel Cycling A.530/585hp (E. coli AG100tet; cycle 4, without glucose): 2.787
Fluorescence raw data, Channel Cycling A.530/585hp (E. coli AG100tet; cycle 5, without glucose): 2.697
Fluorescence raw data, Channel Cycling A.530/585hp (E. coli AG100tet; cycle 6, without glucose): 2.616
Fluorescence raw data, Channel Cycling A.530/585hp (E. coli AG100tet; cycle 7, without glucose): 2.625
Fluorescence raw data, Channel Cycling A.530/585hp (E. coli AG100tet; cycle 8, without glucose): 2.608
Fluorescence raw data, Channel Cycling A.530/585hp (E. coli AG100tet; cycle 9, + glucose): 1.745
Fluorescence raw data, Channel Cycling A.530/585hp (E. coli AG100tet; cycle 9, without glucose): 2.567
Fluorescence raw data, Channel Cycling A.530/585hp (E. coli AG100tet; cycle 10, + glucose): 1.7497
Fluorescence raw data, Channel Cycling A.530/585hp (E. coli AG100tet; cycle 10, without glucose): 2.517
Fluorescence raw data, Channel Cycling A.530/585hp (E. coli AG100tet; cycle 11, + glucose): 1.716
Fluorescence raw data, Channel Cycling A.530/585hp (E. coli AG100tet; cycle 11, without glucose): 2.463
Fluorescence raw data, Channel Cycling A.530/585hp (E. coli AG100tet; cycle 12, + glucose): 1.744
Fluorescence raw data, Channel Cycling A.530/585hp (E. coli AG100tet; cycle 12, without glucose): 2.462
Fluorescence raw data, Channel Cycling A.530/585hp (E. coli AG100tet; cycle 13, + glucose): 1.706
Fluorescence raw data, Channel Cycling A.530/585hp (E. coli AG100tet; cycle 13, without glucose): 2.458
Fluorescence raw data, Channel Cycling A.530/585hp (E. coli AG100tet; cycle 14, + glucose): 1.697
Fluorescence raw data, Channel Cycling A.530/585hp (E. coli AG100tet; cycle 14, without glucose): 2.431
Fluorescence raw data, Channel Cycling A.530/585hp (E. coli AG100tet; cycle 15, + glucose): 1.701
Fluorescence raw data, Channel Cycling A.530/585hp (E. coli AG100tet; cycle 15, without glucose): 2.375
Fluorescence raw data, Channel Cycling A.530/585hp (E. coli AG100tet; cycle 16, + glucose): 1.676
Fluorescence raw data, Channel Cycling A.530/585hp (E. coli AG100tet; cycle 16, without glucose): 2.373
Fluorescence raw data, Channel Cycling A.530/585hp (E. coli AG100tet; cycle 17, + glucose): 1.744
Fluorescence raw data, Channel Cycling A.530/585hp (E. coli AG100tet; cycle 17, without glucose): 2.339
Fluorescence raw data, Channel Cycling A.530/585hp (E. coli AG100tet; cycle 18, + glucose): 1.635
Fluorescence raw data, Channel Cycling A.530/585hp (E. coli AG100tet; cycle 18, without glucose): 2.379
Fluorescence raw data, Channel Cycling A.530/585hp (E. coli AG100tet; cycle 19, + glucose): 1.694
Fluorescence raw data, Channel Cycling A.530/585hp (E. coli AG100tet; cycle 19, without glucose): 2.342
Fluorescence raw data, Channel Cycling A.530/585hp (E. coli AG100tet; cycle 20, + glucose): 1.701
Fluorescence raw data, Channel Cycling A.530/585hp (E. coli AG100tet; cycle 20, without glucose): 2.323
Fluorescence raw data, Channel Cycling A.530/585hp (E. coli AG100tet; cycle 21, + glucose): 1.621
Fluorescence raw data, Channel Cycling A.530/585hp (E. coli AG100tet; cycle 21, without glucose): 2.26
Fluorescence raw data, Channel Cycling A.530/585hp (E. coli AG100tet; cycle 22, + glucose): 1.645
Fluorescence raw data, Channel Cycling A.530/585hp (E. coli AG100tet; cycle 22, without glucose): 2.252
Fluorescence raw data, Channel Cycling A.530/585hp (E. coli AG100tet; cycle 23, + glucose): 1.597
Fluorescence raw data, Channel Cycling A.530/585hp (E. coli AG100tet; cycle 23, without glucose): 2.314
Fluorescence raw data, Channel Cycling A.530/585hp (E. coli AG100tet; cycle 24, + glucose): 1.6798
Fluorescence raw data, Channel Cycling A.530/585hp (E. coli AG100tet; cycle 24, without glucose): 2.2447
Fluorescence raw data, Channel Cycling A.530/585hp (E. coli AG100tet; cycle 25, + glucose): 1.636
Fluorescence raw data, Channel Cycling A.530/585hp (E. coli AG100tet; cycle 25, without glucose): 2.272
Fluorescence raw data, Channel Cycling A.530/585hp (E. coli AG100tet; cycle 26, + glucose): 1.633
Fluorescence raw data, Channel Cycling A.530/585hp (E. coli AG100tet; cycle 26, without glucose): 2.288
Fluorescence raw data, Channel Cycling A.530/585hp (E. coli AG100tet; cycle 27, + glucose): 1.617
Fluorescence raw data, Channel Cycling A.530/585hp (E. coli AG100tet; cycle 27, without glucose): 2.2961
Fluorescence raw data, Channel Cycling A.530/585hp (E. coli AG100tet; cycle 28, + glucose): 1.668
Fluorescence raw data, Channel Cycling A.530/585hp (E. coli AG100tet; cycle 28, without glucose): 2.2127
Fluorescence raw data, Channel Cycling A.530/585hp (E. coli AG100tet; cycle 29, + glucose): 1.644
Fluorescence raw data, Channel Cycling A.530/585hp (E. coli AG100tet; cycle 29, without glucose): 2.236
Fluorescence raw data, Channel Cycling A.530/585hp (E. coli AG100tet; cycle 30, + glucose): 1.668
Fluorescence raw data, Channel Cycling A.530/585hp (E. coli AG100tet; cycle 30, without glucose): 2.282
Fluorescence raw data, Channel Cycling A.530/585hp (E. coli AG100tet; cycle 31, + glucose): 1.6751
Fluorescence raw data, Channel Cycling A.530/585hp (E. coli AG100tet; cycle 31, without glucose): 2.164
Fluorescence raw data, Channel Cycling A.530/585hp (E. coli AG100tet; cycle 32, + glucose): 1.6187
Fluorescence raw data, Channel Cycling A.530/585hp (E. coli AG100tet; cycle 32, without glucose): 2.166
Fluorescence raw data, Channel Cycling A.530/585hp (E. coli AG100tet; cycle 33, + glucose): 1.65
Fluorescence raw data, Channel Cycling A.530/585hp (E. coli AG100tet; cycle 33, without glucose): 2.197
Fluorescence raw data, Channel Cycling A.530/585hp (E. coli AG100tet; cycle 34, + glucose): 1.608
Fluorescence raw data, Channel Cycling A.530/585hp (E. coli AG100tet; cycle 34, without glucose): 2.188
Fluorescence raw data, Channel Cycling A.530/585hp (E. coli AG100tet; cycle 35, + glucose): 1.636
Fluorescence raw data, Channel Cycling A.530/585hp (E. coli AG100tet; cycle 35, without glucose): 2.154
Fluorescence raw data, Channel Cycling A.530/585hp (E. coli AG100tet; cycle 36, + glucose): 1.655
Fluorescence raw data, Channel Cycling A.530/585hp (E. coli AG100tet; cycle 36, without glucose): 2.1525
Fluorescence raw data, Channel Cycling A.530/585hp (E. coli AG100tet; cycle 37, + glucose): 1.639
Fluorescence raw data, Channel Cycling A.530/585hp (E. coli AG100tet; cycle 37, without glucose): 2.17
Fluorescence raw data, Channel Cycling A.530/585hp (E. coli AG100tet; cycle 38, + glucose): 1.617
Fluorescence raw data, Channel Cycling A.530/585hp (E. coli AG100tet; cycle 38, without glucose): 2.15
Fluorescence raw data, Channel Cycling A.530/585hp (E. coli AG100tet; cycle 39, + glucose): 1.593
Fluorescence raw data, Channel Cycling A.530/585hp (E. coli AG100tet; cycle 39, without glucose): 2.185
Fluorescence raw data, Channel Cycling A.530/585hp (E. coli AG100tet; cycle 40, + glucose): 1.564
Fluorescence raw data, Channel Cycling A.530/585hp (E. coli AG100tet; cycle 40, without glucose): 2.132
Fluorescence raw data, Channel Cycling A.530/585hp (E. coli AG100tet; cycle 41, + glucose): 1.567
Fluorescence raw data, Channel Cycling A.530/585hp (E. coli AG100tet; cycle 41, without glucose): 2.08
Fluorescence raw data, Channel Cycling A.530/585hp (E. coli AG100tet; cycle 42, + glucose): 1.587
Fluorescence raw data, Channel Cycling A.530/585hp (E. coli AG100tet; cycle 42, without glucose): 2.131
Fluorescence raw data, Channel Cycling A.530/585hp (E. coli AG100tet; cycle 43, + glucose): 1.59
Fluorescence raw data, Channel Cycling A.530/585hp (E. coli AG100tet; cycle 43, without glucose): 2.079
Fluorescence raw data, Channel Cycling A.530/585hp (E. coli AG100tet; cycle 44, + glucose): 1.59
Fluorescence raw data, Channel Cycling A.530/585hp (E. coli AG100tet; cycle 44, without glucose): 2.093
Fluorescence raw data, Channel Cycling A.530/585hp (E. coli AG100tet; cycle 45, without glucose): 2.121
Fluorescence raw data, Channel Cycling A.530/585hp (E. coli AG100tet; cycle 46, without glucose): 2.065
Fluorescence raw data, Channel Cycling A.530/585hp (E. coli AG100tet; cycle 47, without glucose): 2.081
Fluorescence raw data, Channel Cycling A.530/585hp (E. coli AG100tet; cycle 48, without glucose): 2.1149
Fluorescence raw data, Channel Cycling A.530/585hp (E. coli AG100tet; cycle 49, without glucose): 2.071
Fluorescence raw data, Channel Cycling A.530/585hp (E. coli AG100tet; cycle 50, without glucose): 2.047
Fluorescence raw data, Channel Cycling A.530/585hp (E. coli AG100tet; cycle 51, without glucose): 2.071
Fluorescence raw data, Channel Cycling A.530/585hp (E. coli AG100tet; cycle 52, without glucose): 2.107
Fluorescence raw data, Channel Cycling A.530/585hp (E. coli AG100tet; cycle 53, without glucose): 2.082
Fluorescence raw data, Channel Cycling A.530/585hp (E. coli AG100tet; cycle 54, without glucose): 2.046
Fluorescence raw data, Channel Cycling A.530/585hp (E. coli AG100tet; cycle 55, without glucose): 2.03
Fluorescence raw data, Channel Cycling A.530/585hp (E. coli AG100tet; cycle 56, without glucose): 2.023
Fluorescence raw data, Channel Cycling A.530/585hp (E. coli AG100tet; cycle 57, without glucose): 2.015
Fluorescence raw data, Channel Cycling A.530/585hp (E. coli AG100tet; cycle 58, without glucose): 2.049
Fluorescence raw data, Channel Cycling A.530/585hp (E. coli AG100tet; cycle 59, without glucose): 2.011
Fluorescence raw data, Channel Cycling A.530/585hp (E. coli AG100tet; cycle 60, without glucose): 2.05
Fluorescence raw data, Channel Cycling A.530/585hp (E. coli AG100tet; cycle 61, without glucose): 1.991
MIC [1]: > 200 µg/mL and > 385 µM
effect on OFX and EtBr MICs (E. coli AG100A; AG100A (pump-deficient strain)): no effect
reduction in OXA MIC (E. coli AG100A; AG100A (pump-deficient strain)): 4 fold
reduction in TET MIC (E. coli AG100A; AG100A (pump-deficient strain)): 16 fold
MIC (E. coli AG100A; read-out: MIC of EtBr in presence of the efflux inhibitor): 3.12 µg/mL
MIC (E. coli AG100A; read-out: MIC of OFX in presence of the efflux inhibitor): 0.03 µg/mL
MIC (E. coli AG100A; read-out: MIC of OXA in presence of the efflux inhibitor): 0.25 µg/mL
MIC (E. coli AG100A; read-out: MIC of TET in presence of the efflux inhibitor): 0.03 µg/mL
